IC50 data for 52 molecules are collected here from patent US20180298010A1, “PRMT5 INHIBITORS AND USES THEREOF” (Epizyme, Inc., priority 2012, published 2018).

The target of the test is T1, PRMT5/MEP50 (Homo sapiens, UniProt O14744).
T1 construct: Flag-PRMT5; 6His-MEP50
T1 sequence (O14744 with tags, fused parts or gaps): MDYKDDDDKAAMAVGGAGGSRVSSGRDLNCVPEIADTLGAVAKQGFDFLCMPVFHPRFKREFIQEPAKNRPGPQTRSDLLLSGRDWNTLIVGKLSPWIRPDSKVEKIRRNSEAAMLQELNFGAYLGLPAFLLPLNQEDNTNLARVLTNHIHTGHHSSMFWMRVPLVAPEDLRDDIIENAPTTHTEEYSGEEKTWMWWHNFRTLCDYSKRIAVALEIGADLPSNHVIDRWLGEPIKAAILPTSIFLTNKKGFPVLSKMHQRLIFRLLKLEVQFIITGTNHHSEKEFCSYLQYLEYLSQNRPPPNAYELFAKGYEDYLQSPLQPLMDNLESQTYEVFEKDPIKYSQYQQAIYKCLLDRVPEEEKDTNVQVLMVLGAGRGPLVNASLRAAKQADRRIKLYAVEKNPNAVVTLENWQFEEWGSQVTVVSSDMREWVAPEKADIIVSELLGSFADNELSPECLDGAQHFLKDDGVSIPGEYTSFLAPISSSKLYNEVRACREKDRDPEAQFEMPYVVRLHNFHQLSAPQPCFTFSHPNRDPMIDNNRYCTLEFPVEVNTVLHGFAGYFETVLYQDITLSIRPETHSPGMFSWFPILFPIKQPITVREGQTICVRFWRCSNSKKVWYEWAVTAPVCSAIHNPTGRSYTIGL
T1 sequence (Q9BQA1 with tags, fused parts or gaps partner): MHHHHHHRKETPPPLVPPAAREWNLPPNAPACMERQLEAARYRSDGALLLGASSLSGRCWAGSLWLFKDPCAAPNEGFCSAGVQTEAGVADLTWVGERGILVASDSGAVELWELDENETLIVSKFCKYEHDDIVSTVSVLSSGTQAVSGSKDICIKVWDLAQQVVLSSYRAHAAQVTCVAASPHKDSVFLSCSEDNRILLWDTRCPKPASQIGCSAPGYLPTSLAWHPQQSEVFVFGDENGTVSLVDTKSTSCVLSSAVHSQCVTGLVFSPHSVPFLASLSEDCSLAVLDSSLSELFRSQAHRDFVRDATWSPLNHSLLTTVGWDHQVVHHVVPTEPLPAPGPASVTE
Description: PRMT5 Biochemical Assay (PRMT5/MEP50 enzyme assay on peptide substrate, 3H-SAM Flashplate). From the text: General Materials. S-adenosylmethionine (SAM), S-adenosylhomocysteine (SAH), bicine, KCl, Tween20, dimethylsulfoxide (DMSO), bovine skin gelatin (BSG), and Tris(2-carboxyethyl)phosphine hydrochloride solution (TCEP) were purchased from Sigma-Aldrich at the highest level of purity possible. ^3H-SAM was purchase from American Radiolabeled Chemicals with a specific activity of 80 Ci/mmol. 384-well streptavidin Flashplates were purchased from PerkinElmer.
Substrates. Peptide representative of human histone H4 residues 1-15 was synthesized with a C-terminal linker-affinity tag motif and a C-terminal amide cap by 21st Century Biochemicals. The peptide was high high-perfomance liquid chromatography (HPLC) purified to greater than 95% purity and confirmed by liquid chromatography mass spectrometry (LC-MS). The sequence was Ac-[…][K-Biot]-amide (SEQ ID NO.:3).
Molecular Biology: Full-length human PRMT5 (NM_006109.3) transcript variant 1 clone was amplified from a fetal brain cDNA library, incorporating flanking 5′ sequence encoding a FLAG tag ([…]) (SEQ ID NO.:4) fused directly to Ala 2 of PRMT5. Full-length human MEP50 (NM_024102) clone was amplified from a human testis cDNA library incorporating a 5′ sequence encoding a 6-histidine tag (MHHHHHH) (SEQ ID NO.:5) fused directly to Arg 2 of MEP50. The amplified genes were sublconed into pENTR/D/TEV (Life Technologies) and subsequently transferred by Gateway™ attL×attR recombination to pDEST8 baculvirus expression vector (Life Technologies).
Protein Expression. Recombinant baculovirus and Baculovirus-Infected Insect Cells (BIIC) were generated according to Bac-to-Bac kit instructions (Life Technologies) and Wasilko, 2006, respectively. Protein over-expression was accomplished by infecting exponentially growing Spodoptera frugiperda (SF9) cell culture at 1.2×10^6cell/ml with a 5000 fold dilution of BIIC stock. Infections were carried out at 27° C. for 72 hours, harvested by centrifugation, and stored at −80° C. for purification.
Protein Purification. […] Flag-PRMT5/6His-MeP50 was eluted with 300 mM Imidazole in the same buffer. The purity of recovered protein was 87%. Reference: Wasilko, D. J. and S. E. Lee: “TIPS: titerless infected-cells preservation and scale-up” Bioprocess J., 5 (2006), pp. 29-32.
General Procedure for PRMT5/MEP50 Enzyme Assays on Peptide Substrates. The assays were all performed in a buffer consisting of 20 mM Bicine (pH=7.6), 1 mM TCEP, 0.005% BSG, and 0.002% Tween20, prepared on the day of use. Compounds in 100% DMSO (1 ul) were spotted into a polypropylene 384-well V-bottom plates (Greiner) using a Platemate Plus outfitted with a 384-channel head (Thermo Scientific). DMSO (1 ul) was added to Columns 11, 12, 23, 24, rows A-H for the maximum signal control and 1 ul of SAH, a known product and inhibitor of PRMT5/MEP50, was added to columns 11, 12, 23, 24, rows I-P for the minimum signal control. A cocktail (40 ul) containing the PRMT5/MEP50 enzyme and the peptide was added by Multidrop Combi (Thermo-Fisher). The compounds were allowed to incubate with PRMT5/MEP50 for 30 min at 25 degrees Celsius, then a cocktail (10 ul) containing ^3H-SAM was added to initiate the reaction (final volume=51 ul). The final concentrations of the components were as follows: PRMT5/MEP50 was 4 nM, ^3H-SAM was 75 nM, peptide was 40 nM, SAH in the minimum signal control wells was 100 uM, and the DMSO concentration was […]. The assays were stopped by the addition of non-radioactive SAM (10 ul) to a final concentration of 600 uM, which dilutes the ^3H-SAM to a level where its incorporation into the peptide substrate is no longer detectable. 50 ul of the reaction in the 384-well polypropylene plate was then transferred to a 384-well Flashplate and the biotinylated peptides were allowed to bind to the streptavidin surface for at least 1 hour before being washed three times with 0.1% Tween20 in a Biotek ELx405 plate washer. […]
As for `CC(OCC(O)CN1CCc2ccccc2C1)c1cccnc1` (stereo not shown) [Compound 299], the 50% inhibitory concentration (IC50) (commonly the concentration needed to halve the response being measured) lay within 10000 to 40000 nM.

With `OC(COCc1cc(-c2ccc(Cl)cc2)no1)CN1CCc2ccccc2C1` (stereo not shown) [Compound 11], the IC50 is 101 to 1000 nM.

For `O=C(c1cccc(-c2cccc(OCC(O)CN3CCc4ccccc4C3)c2)c1)N1CCCC1` (stereo not shown) [Compound 185], the IC50 fell in the range of 101 to 1000 nM.

For the molecule `OC(COc1cccc(-c2ccccc2Cl)c1)CN1CCc2ccccc2C1` (stereo not shown) [Compound 92], the IC50 lay within 101 to 1000 nM.

Turning to `OC(COc1cccc2ccc(N3CCOCC3)nc12)CN1CCc2ccccc2C1` (stereo not shown) [Compound 15], the IC50 is 1000 to 10000 nM.

For `COc1cccc2c1CN(CC(O)COc1cccc(-c3ccc4ncn(C)c4c3)c1)CC2` (stereo not shown) [Compound 100], the IC50 lay in the range of 1000 to 10000 nM.

Consider `COc1cccc2c1CCN(CC(O)COc1cccc(-c3ccc4ncn(C)c4c3)c1)C2` (stereo not shown) [Compound 142], for which the IC50 lay within 1000 to 10000 nM.

As for `CC1CN(CC(O)COc2cccc(-c3ccc4ncn(C)c4c3)c2)Cc2ccccc21` (stereo not shown) [Compound 101], the IC50 lay within 1000 to 10000 nM.

Turning to `OC(COCC1CC1)CN1CCc2ccccc2C1` (stereo not shown) [Compound 303], the IC50 lay in the range of 1000 to 10000 nM.

Consider `OC(COc1cccc(CNc2cc[nH]n2)c1)CN1CCc2ccccc2C1` (stereo not shown) [Compound 6, 1-(3-(((1H-pyrazol-3-yl)amino)methyl)phenoxy)-3-(3,4-dihydroisoquinolin-2(1H)-yl)propan-2-ol], for which the IC50 is 101 to 1000 nM.

Turning to `CN(C(=O)c1cncn1C)c1cccc(OCC(O)CN2CCc3ccccc3C2)c1` (stereo not shown) [Compound 203], the IC50 lay within 1000 to 10000 nM.

As to `OC(COc1ccc(-c2ccn[nH]2)cc1)CN1CCc2ccccc2C1` (stereo not shown) [Compound 48], the IC50 fell in the range of 1000 to 10000 nM.

Take `OC(COc1cccc(CN2CCCCC2)c1)CN1CCc2ccccc2C1` (stereo not shown) [Compound 14]: the IC50 lay in the range of 1000 to 10000 nM.

As for `CC(C)n1nccc1-c1ccc(OCC(O)CN2CCc3ccccc3C2)cc1` (stereo not shown) [Compound 26], the 50% inhibitory concentration (IC50) lay within 10000 to 40000 nM.

As to `OC(COC1CCN(Cc2ccccc2)CC1)CN1CCc2ccccc2C1` (stereo not shown) [Compound 21], the 50% inhibitory concentration (IC50) lay in the range of 1000 to 10000 nM.

For the molecule `Cc1ccc2c(c1)CN(CC(O)COc1cccc(-c3ccc4ncn(C)c4c3)c1)CC2` (stereo not shown) [Compound 212], the IC50 fell in the range of 1000 to 10000 nM.

On to `Cc1cn(C)c2cc(-c3cccc(OCC(O)CN4CCc5ccccc5C4)c3)ccc12` (stereo not shown) [Compound 187], for which the IC50 is 101 to 1000 nM.

As to `CCC1c2ccccc2CCN1CC(O)COc1cccc(-c2ccc3ncn(C)c3c2)c1` (stereo not shown) [Compound 179], the IC50 fell in the range of 101 to 1000 nM.

As to `OC(COc1ccc(Cc2ccccc2)cc1)CN1CCc2ccccc2C1` (stereo not shown) [Compound 10], the IC50 was 101 to 1000 nM.

Regarding `COc1c(COCC(O)CN2CCc3ccccc3C2)ccc2ccccc12` (stereo not shown) [Compound 279], the IC50 was 1000 to 10000 nM.

On to `Cc1ccc(-c2cccc(OCC(O)CN3CCc4ccccc4C3)c2)cn1` (stereo not shown) [Compound 78], for which the IC50 was in the range of 1000 to 10000 nM.

Regarding `Cn1cnc2ccc(-c3cccc(OCC(O)CN4CCc5ccccc5C4(C)C)c3)cc21` (stereo not shown) [Compound 211], the IC50 was in the range of 1000 to 10000 nM.

As for `OC(COc1ccc(OCC(O)CN2CCc3ccccc3C2)cc1)CN1CCc2ccccc2C1` (stereo not shown) [Compound 3], the 50% inhibitory concentration (IC50) lay in the range of 101 to 1000 nM.

As to `OC(COc1cccc(-c2cccc(Cl)c2)c1)CN1CCc2ccccc2C1` (stereo not shown) [Compound 91], the IC50 was in the range of 1000 to 10000 nM.

In the case of `O=C(Nc1cccc(OCC(O)CN2CCc3ccccc3C2)c1)c1cccnn1` (stereo not shown) [Compound 164], the concentration for half-maximal inhibition (IC50) is 1000 to 10000 nM.

On to `CS(=O)(=O)c1ccc(-c2cccc(OCC(O)CN3CCc4ccccc4C3)c2)cc1` (stereo not shown) [Compound 63], for which the IC50 was 101 to 1000 nM.

For the molecule `O=C(c1ccc(Cn2ccc(-c3ccc(OCC(O)CN4CCc5ccccc5C4)cc3)n2)cc1)N1CCCC1` (stereo not shown) [Compound 34], the IC50 is 1000 to 10000 nM.

For the molecule `OC(COc1cccc(-c2ccc(Cl)cc2)c1)CN1CCc2ccccc2C1` (stereo not shown) [Compound 69], the IC50 is 1000 to 10000 nM.

With `Cn1cnc2cc(-c3cccc(OCC(O)CN4CCc5ccccc5C4)c3)ccc21` (stereo not shown) [Compound 60, 1-(3,4-dihydroisoquinolin-2(1H)-yl)-3-(3-(1-methyl-1H-benzo[d]imidazol-5-yl)phenoxy)propan-2-ol], the IC50 lay within 101 to 1000 nM.

Take `OC(COc1cccc(-c2ccncc2)c1)CN1CCc2ccccc2C1` (stereo not shown) [Compound 97]: the IC50 is 1000 to 10000 nM.

For `OC(COc1cccc(CNC2CCCC2)c1)CN1CCc2ccccc2C1` (stereo not shown) [Compound 1], the IC50 was in the range of 101 to 1000 nM.

On to `COc1ccc2c(c1)CN(CC(O)COc1cccc(-c3ccc4ncn(C)c4c3)c1)CC2` (stereo not shown) [Compound 177], for which the IC50 lay in the range of 10000 to 40000 nM.

Turning to `Cn1cc(-c2cccc(OCC(O)CN3CCc4ccccc4C3)c2)cn1` (stereo not shown) [Compound 44], the IC50 fell in the range of 1000 to 10000 nM.

For the molecule `CC1c2ccccc2CCN1CC(O)COc1cccc(CNC2CCCC2)c1` (stereo not shown) [Compound 50], the IC50 lay in the range of 1000 to 10000 nM.

Regarding `OC(COc1cccc(-c2cccnc2)c1)CN1CCc2ccccc2C1` (stereo not shown) [Compound 40], the IC50 was in the range of 1000 to 10000 nM.

Consider `COc1ccc(-c2cccc(OCC(O)CN3CCc4ccccc4C3)c2)c(Cl)c1` (stereo not shown) [Compound 88], for which the IC50 was 101 to 1000 nM.

`CN(C(=O)c1cn(C)cn1)c1cccc(OCC(O)CN2CCc3ccccc3C2)c1` (stereo not shown) [Compound 197]: the half-maximal inhibitory concentration (IC50) lay within 1000 to 10000 nM.

In the case of `Cn1cnc2ccc(-c3cncc(NCC(O)CN4CCc5ccccc5C4)n3)cc21` (stereo not shown) [Compound 121, 1-(3,4-dihydroisoquinolin-2(1H)-yl)-3-((6-(1-methyl-1H-benzo[d]imidazol-6-yl)pyrazin-2-yl)amino)propan-2-ol], the IC50 is 101 to 1000 nM.

For the molecule `OC(COCc1ccc(Cl)cc1Cl)CN1CCc2ccccc2C1` (stereo not shown) [Compound 281], the IC50 lay in the range of 1000 to 10000 nM.

Consider `OC(COc1cccc(CNC2CCNCC2)c1)CN1CCc2ccccc2C1` (stereo not shown) [Compound 13], for which the half-inhibitory concentration (IC50) is 1000 to 10000 nM.

In the case of `Cn1cnc2cc(-c3cc(NCC(O)CN4CCc5ccccc5C4)n[nH]3)ccc21` (stereo not shown) [Compound 272, 1-(3,4-dihydroisoquinolin-2(1H)-yl)-3-((5-(1-methyl-1H-benzo[d]imidazol-5-yl)-1H-pyrazol-3-yl)amino)propan-2-ol], the concentration for half-maximal inhibition (IC50) fell in the range of 101 to 1000 nM.

Turning to `OC(COc1cccc(OCc2ccccc2)c1)CN1CCc2ccccc2C1` (stereo not shown) [Compound 20], the IC50 was 1000 to 10000 nM.

In the case of `Cn1cc2ccc(-c3cc(NCC(O)CN4CCc5ccccc5C4)ncn3)cc2n1` (stereo not shown) [Compound 224], the IC50 is 101 to 1000 nM.

Consider `CC(C)(C)OC(=O)N1CCCC(OCC(O)CN2CCc3ccccc3C2)C1` (stereo not shown) [Compound 291], for which the IC50 was in the range of 1000 to 10000 nM.

On to `OC(COCC1CCCO1)CN1CCc2ccccc2C1` (stereo not shown) [Compound 305], for which the IC50 was in the range of 10000 to 40000 nM.

Consider `OC(COc1cccc(-c2cnc3ccccc3c2)c1)CN1CCc2ccccc2C1` (stereo not shown) [Compound 89, 1-(3,4-dihydroisoquinolin-2(1H)-yl)-3-(3-(quinolin-3-yl)phenoxy)propan-2-ol], for which the IC50 lay within 101 to 1000 nM.

On to `OC(COC1CCN(c2ccccc2)C1)CN1CCc2ccccc2C1` (stereo not shown) [Compound 175], for which the IC50 lay in the range of 1000 to 10000 nM.

Consider `COc1ccc(Cl)cc1-c1cccc(OCC(O)CN2CCc3ccccc3C2)c1` (stereo not shown) [Compound 134, 1-((5′-chloro-2′-methoxy-[1,1′-biphenyl]-3-yl)oxy)-3-(3,4-dihydroisoquinolin-2(1H)-yl)propan-2-ol], for which the IC50 fell in the range of 101 to 1000 nM.

For the molecule `COc1ncc(-c2cccc(OCC(O)CN3CCc4ccccc4C3)c2)cn1` (stereo not shown) [Compound 153], the IC50 is 1000 to 10000 nM.

On to `CNC(=O)Cn1ccc2cnc(-c3cccc(OCC(O)CN4CCc5ccccc5C4)c3)nc21` (stereo not shown) [Compound 206], for which the IC50 lay within 1000 to 10000 nM.

On to `OC(COCC1COc2ccccc2O1)CN1CCc2ccccc2C1` (stereo not shown) [Compound 300], for which the IC50 is 101 to 1000 nM.

With `CN(C)c1ccc(-c2cccc(OCC(O)CN3CCc4ccccc4C3)c2)cc1` (stereo not shown) [Compound 151], the IC50 was 101 to 1000 nM.
